Literature values as cited in patent publication US8303934B2, “Methods and compositions of [32P]-labeled adenine nucleotides for the treatment of atherosclerosis, vascular arterial diseases and coronary artery diseases” (priority 2011, dated 2012).

Test system: established human xenographed tumors
Details: established human xenografted tumors in athymic mice; low-level doses

## Nc1ncnc2c1ncn2[C@@H]1O[C@H](COP(=O)(O)OP(=O)(O)OP(=O)(O)O)[C@@H](O)[C@H]1O [[32P]ATP, [32P]adenosine 5′-triphosphate]
  activity as an anti-tumor cytotoxic agent: very active
